Measurements published in PMC4945996 (Journal of the American Chemical Society, 2016).
Where “and” joins values, the source holds several entries; their conditions need not be identical. Identical values can stand only once. Like-named read-outs stand apart in the source and are kept apart here. Each block holds one molecule with its values, some of them ahead of it.

How the values were obtained:
[1] = biological target: MIF binding to CD74; details: blocking binding of MIF to CD74; cited from earlier work
[2] = biological target: T1, human MIF (Homo sapiens, UniProt P14174); test: HPP tautomerase assay; assay type: biochemical; details: for Ki: tautomerase inhibition, HPP substrate, pH 6–6.1
T1 sequence (P14174 2-115 limits assumed): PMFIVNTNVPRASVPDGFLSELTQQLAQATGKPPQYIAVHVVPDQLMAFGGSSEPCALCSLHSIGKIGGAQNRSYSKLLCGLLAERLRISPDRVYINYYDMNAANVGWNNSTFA

[3] = biological target: T1, human MIF; test: Competitive fluorescence polarization; assay type: binding; details: for Kd: 0.004 μM tracer B, […] MIF, pH 7.4, Kd from IC50 via eq 1
[4] = system: MIF; details: covalent inhibitor: result is time-dependent; cited from earlier work
[5] = biological target: MIF; details: DOPA assay; cited from earlier work
[6] = system: MIF; details: cited from earlier work

Ki [2]: 185 nM | Kd ([3]; Kd): 159 nM
SMILES: O=C1Oc2cc(O)ccc2CN1c1ccc(O)cc1 [NVS-6]

Ki [2]: 569 nM | fold weaker binding (cyclohexyl analogue vs NVS-2) [3]: ca. 10 fold | Kd ([3]; Kd): 456 nM
SMILES: O=C1Oc2cc(O)ccc2CN1C1CCCCC1 [NVS-1]

Ki [2]: ~30 nM and 30 nM | fold more potent than (R)-ISO-1 ([2]; from Ki values): roughly 1000 fold | fold stronger binding than NVS-6 [3]: 3 fold | ligand efficiency ([3]; (−2.3RT/HAC) log Kd): 0.50
SMILES: COc1ccc(N2Cc3ccc(O)cc3OC2=O)cc1 [NVS-2]
IC50 ([6]; HPP tautomerase assay): 20 nM | IC50 ([6]; previously reported): 20 nM

The remaining lines, values behind:

SMILES: COc1cc(-c2ccc(N=Nc3ccc4c(S(=O)(=O)O)cc(S(=O)(=O)O)c(N)c4c3O)c(OC)c2)ccc1N=Nc1ccc2c(S(=O)(=O)O)cc(S(=O)(=O)O)c(N)c2c1O [PSB]
IC50 [1]: 810 nM

SMILES: Ic1cc(-c2ccccc2)ncn1 [4-IPP]
IC50 [4]: 4500 nM | Kd [3]: 446 nM | time dependence of FP results ([3]; FP monitored for 1 h after the 20 min incubation): time dependent

SMILES: O=C(O)c1ccc(Oc2cn(-c3ccc(O)c(F)c3)nn2)cc1 [5b]
Ki [2]: 1700 nM

SMILES: O=c1c(-c2ccc(O)c(O)c2)coc2cc(O)ccc12 [Orita-13]
Ki [5]: 38 nM

SMILES: COc1ccc(Oc2cn(-c3ccc(O)c(F)c3)nn2)cc1 [5a]
Ki [2]: 1900 nM
